The compounds below were run on Plasmodium falciparum (assay: GSK_TCMDC: Inhibition of Plasmodium falciparum 3D7 in whole erythrocytes, using parasite LDH activity as an index of growth.). Conditions: Plasmodium falciparum, 3D7.
Type: functional, organism-based

Row | Structure (SMILES) | XC50 [nM]
1 | CCc1nnc2sc(-c3cccc(NC(=O)c4ccc(OC)c(Cl)c4)c3)nn12 | 1140
2 | CCN(CC)CCCNC(=O)/C(=C/C=C/c1cc2cc(Cl)c(Cl)cc2[nH]1)OC | 1160
3 | c1csc(-c2nc(N3CCCC3)ncc2-c2ccsc2)n1 | 210
4 | Cc1ccc(Cn2nc(Cl)c(N3CCCNCC3)cc2=O)cc1NC(=O)Nc1ccc(-c2ccccc2)cc1 | 667
5 | COc1ccc(Nc2ncc3c(-c4cccc(NC(=O)CC(C)C)c4)c[nH]c3n2)cc1OC | 826
6 | COc1ccc2ncc(Cl)c(N3CCC(CCNCc4ccc5c(n4)NC(=O)CS5)CC3)c2c1 | 961
7 | O=C(NCCCCN1CCC(O)(c2ccc(Cl)cc2)CC1)c1ccc(Br)cc1 | 1250
8 | CC[C@H](N/C(=N\c1ccc(-c2ccccc2)cc1)Nc1ccc(C#N)cc1O)c1ccccc1 | 759
9 | Nc1cc(-c2ccc3ccccc3c2)nc2ccccc12 | 699
10 | Nc1ncc(-c2ccc(F)cc2)c2ccc(-c3cccc(F)c3)cc12 | 227
11 | O=C(CN1CCC2(CCC1=O)CC(=O)c1ccccc1O2)NCCN1CCOCC1 (centres undefined) | 221
12 | Cc1cccc(NC(=S)NC2CCN(CCCCCNC(=O)/C=C/c3ccc(Cl)c(Cl)c3)CC2)c1 | 948
13 | Cc1cc2c3c(N)nc(N)nc3ccc2n1C(C)C | 8.52
14 | CCNc1cc(C(=O)N[C@@H](Cc2ccccc2)[C@H](O)CNC2CCC(F)(F)CC2)c(F)c(N2CCCCS2(=O)=O)c1 | 212
15 | Cc1ccc(C(=O)Nc2ccc(Nc3ccnc4cc(-c5nccs5)ccc34)cc2O)cc1 | 47.8
16 | Cc1[nH]c(C)c(-c2ccc(Oc3ccc(F)cc3)cc2)c(=O)c1Br | 54.9
17 | COc1ccc2nccc([C@@H](O)CN3CCC(NCc4cc5cccc(O)c5c(=O)[nH]4)CC3)c2c1 | 385
18 | COc1ccc(Cc2cnc3nc(N)nc(N)c3c2C)cc1 | 29.1
19 | CC(=NNC(=N)N)C(=O)Nc1ccc(Cl)c(Cl)c1 | 166
20 | Cc1cc2c(cc1C(F)(F)F)N(C(=O)Nc1ccc(C(=O)NCCN3CCCC3)cc1)CC2 | 321
21 | COc1c(C(=O)NC2CCN(Cc3ccccc3)C2)cnc2ccccc12 (centres undefined) | 956
22 | COc1ccc2nccc([C@@H](O)CN3CCC(NCc4cc5cc(Cl)ccc5[nH]4)CC3)c2c1 | 128
23 | O=C(/C=C/c1ccccc1Cl)Nc1ccc(Br)c(OCCN2CCN(CCN3CCCC3)CC2)c1 | 653
24 | Cn1c(-c2ccccc2)cc2c3c(N)nc(N)nc3ccc21 | 888
25 | CN(C)Cc1cccc(-c2cnc(N)c(-c3nc4cc(S(C)(=O)=O)ccc4[nH]3)c2)c1 | 887

Row | Structure (SMILES) | XC50 [nM]
26 | Cc1csc(-c2nonc2NC(=O)COc2ccccc2C(C)C)n1 | 551
27 | NC(=O)c1cc(-c2ccccc2)cc2c(C3CCC(NCc4ccccc4)C3)c[nH]c12 (centres undefined) | 910
28 | CCNC(=O)N1CCN(c2nc(-c3ccccc3)nc(COC)c2Cc2ccc(C)cc2)CC1 | 989
29 | Cc1ccc(F)c(OCC2CCCN(c3ccc(C(=O)NC4CC4)cn3)C2)c1 (centres undefined) | 773
30 | c1ccc(-c2ccc(CNCc3ccc(-c4cccc(-c5nc6ccccc6[nH]5)c4)cc3)s2)nc1 | 396
31 | CC(=O)Nc1ccc(CCNC(C)Cc2ccc(C(=O)Nc3ccc(CC(C)NCCc4cccc(Cl)c4)cc3)cc2)cc1 (centres undefined) | 330
32 | O=C(/C=C/c1ccc(I)cc1)NCCCCCN1CCC(c2c[nH]c3ccc(O)cc23)CC1 | 773
33 | Cc1ccc(C(=O)Nc2ccc(Nc3ccnc4cc(-c5ccccn5)ccc34)cc2O)cc1 | 111
34 | Oc1ccc2[nH]c(-c3cccs3)nc2c1CN1CCC(N2CCCC2)CC1 | 642
35 | COc1cc2ncnc(Nc3ccc(OCc4ccccc4)c(I)c3)c2cc1OC | 712
36 | O=C(Cn1c(CCc2cccc(F)c2F)cc(=O)c2ccccc21)N(Cc1ccc(-c2ccc(C(F)(F)F)cc2)cc1)C1CCN(CCN2CCOCC2)CC1 | 720
37 | CC(=O)c1cccc2[nH]c(C(=O)NC3CCC(CCN4CCc5ccc(C#N)cc5C4)CC3)cc12 (centres undefined) | 842
38 | COc1cc2nccc(Nc3ccc(Oc4ccccc4)cc3)c2cc1OC | 684
39 | CC(=NNC(N)=O)C1=C(O)C(c2ccccc2)N(C2CCCCC2)C1=O (centres undefined) | 33
40 | CN(C)C(=O)c1ccc(CN(Cc2ccc3c(c2)OCCO3)Cc2ccc3c(c2)OCO3)cc1 | 175
41 | O=C(NC1CCN(Cc2ccc(Cl)cc2)CC1)c1cn(-c2ccccc2)nc1-c1cccnc1 | 972
42 | CC(C)(O)CC(C)(C)c1cc(Cl)ccc1O | 455
43 | N#Cc1c(-c2ccccc2)cn2c1[nH]c(=O)c1ccccc12 | 109
44 | CN1CCC(NCc2cccc(-c3ccc(S(=O)(=O)NCc4ccccc4)c(F)c3)c2)CC1 | 325
45 | C=CC(=O)Nc1ccc(Cl)cc1C(O)c1ccccc1 (centres undefined) | 182
46 | COc1ccc2ccccc2c1CCCCN1CCN(CC(c2ccc(F)cc2)N2CCC2)CC1 (centres undefined) | 759
47 | Cc1ccc2nc(N(CCCn3ccnc3)C(=O)C=Cc3cccs3)sc2c1 | 1390
48 | O=C(Nc1ccccc1)Nc1cccc(-c2nn3c(OCCN4CCCC4)cccc3c2-c2ccncc2)c1 | 404
49 | Cc1ccc(C)c(NC(=O)Nc2ccc(Nc3nc(C)cc(N4CCOCC4)n3)cc2)c1 | 978
50 | CC1CCCC(C)N1C[C@@H](O)CNS(=O)(=O)c1cccc(C(F)(F)F)c1 (some centres undefined) | 692

Row | Structure (SMILES) | XC50 [nM]
51 | CC(C)(C)c1ccc(NC(=O)c2cccc(CN3CCCN(Cc4ccc(F)cc4)CC3)c2)cc1 | 989
52 | CCCC(C)Nc1nc(C)cc(N[C@@H](CC(C)C)C(=O)NC2CCCC2)n1 (some centres undefined) | 1080
53 | Cc1c(C)n(C2CCCCC2)c2ncnc(OC3CCN(CC(=O)NC4CC4)CC3)c12 | 1240
54 | CC1Cc2ccccc2N1S(=O)(=O)c1cc(OCC(F)(F)F)ccc1OCC(F)(F)F (centres undefined) | 645
55 | CN(c1ccccc1)c1ccnc(NC(=N)Nc2ccc(Cl)cc2)n1 | 1090
56 | CS(=O)(=O)c1ccc(CNCc2ccc(-c3ccc(-c4nc5cc(C(F)(F)F)ccc5[nH]4)cc3)cc2)cc1 | 706
57 | CCc1cn2c3c(cc(C(=O)N[C@@H](Cc4cccc(F)c4)[C@H](O)CNC4CC4)cc13)N(C)S(=O)(=O)CC2 | 143
58 | Cc1cccc2nc(-c3ccc(-c4ccc(CNCCCNS(C)(=O)=O)cc4)s3)[nH]c12 | 999
59 | CS(=O)(=O)CCNCc1ccc(-c2ccc3ncnc(Nc4ccc(OCc5ccccc5)c(Cl)c4)c3c2)o1 [GW574783B] | 557
60 | CN1C(=O)C(=O)N(CCCCCONC(=N)N)C1=S | 197
61 | O=C(CC(c1ccccc1)c1ccccc1O)N1CCOCC1 (centres undefined) | 1520
62 | Cc1ccccc1C1CCN(C2CCC(NC(=O)/C=C/c3ccc(C#N)cc3)CC2)CC1 (centres undefined) | 1170
63 | CCc1c(C(=O)NC2CCC(N3CCC(c4ccccc4OC)CC3)CC2)[nH]c2ccc(Br)cc12 (centres undefined) | 1120
64 | CN1CCN(CCc2ccc3nc(-c4csc(Cc5cc(Cl)ccc5OCc5ccccc5)n4)[nH]c3c2)CC1 | 750
65 | Cc1nc(-c2ccc(C#N)cc2)sc1C(=O)NCCCCN1CCC(c2ccc3c(c2OCCO)CCCC3)CC1 | 850
66 | C=CCn1c(=N)c(C(=O)NC2CCCCC2)cc2c(=O)n3cccc(C)c3nc21 | 1040
67 | CCN(CC)CCN(Cc1ccc(-c2ccc(C(F)(F)F)cc2)cc1)C(=O)Cn1c(CCc2cccc(F)c2F)cc(=O)c(C)c1C | 624
68 | COc1ccc(NC(=O)NC2CCN(c3ccnc4cc(Cl)ccc34)C2)cc1 (centres undefined) | 99.3
69 | N=C(Nc1cccc(Cc2ccccc2)n1)Nc1ncccn1 | 928
70 | Cn1nc(C(F)(F)F)c(-c2ccc(F)cc2)c1NC(=O)Nc1ccc(F)cc1 | 754
71 | COc1cc(C)nc2ccc(NC(=O)Nc3ccc4nc(C)cc(OC)c4c3)cc12 | 548
72 | Cc1noc(C)c1CN1CCCN(c2ccc3c(c2)CCN(Cc2ccc(-c4ncc[nH]4)cc2)CC3)CC1 | 864
73 | O=C(/C=C/c1ccc(F)c(Br)c1)NCCCCCN1CCC(c2c[nH]c3ccccc23)CC1 | 864
74 | CCc1ccc(C2CCN(CCCCNC(=O)c3ccc(NC(=O)c4ccc(Cl)cc4)cc3)CC2)c(OC)c1 | 785
75 | COc1cccc(CN2CCCN(Cc3cccc(NC(=O)c4ccc(-c5ccccc5)cc4)c3)CC2)c1 | 244

Row | Structure (SMILES) | XC50 [nM]
76 | CC1(C)NC(N)=NC(=N)N1OCc1ccc2ccccc2c1CON1C(=N)N=C(N)NC1(C)C | 663
77 | CN(CCc1ccccn1)Cc1ccc(-c2ccc(-c3nc4ccccc4[nH]3)s2)cc1 | 588
78 | CN1CCN(c2ccc(Nc3c4ccccc4nc4ccccc34)cc2)CC1 | 645
79 | CCc1ccc(NC(=O)c2ccc(CN3CCCN(Cc4ccc(C)s4)CC3)cc2)cc1 | 1150
80 | Cc1ccc(NC(=O)c2ccc3ncccc3c2)cc1OC1CCN(Cc2ccco2)C1 (centres undefined) | 1250
81 | COc1ccc(-c2csc3ncnc(Cl)c23)cc1OC | 769
82 | CCCCCCCN1CCC(CC(=O)Nc2ccnc3ccc(OC)cc23)CC1 | 722
83 | Cc1cccc2nc(-c3ccc(-c4ccc(CN5CCN(C6CCN(C)CC6)CC5)cc4)cc3)[nH]c12 | 100
84 | O=C(Nc1cc(Cl)cc(Cl)c1)c1cc(Cl)c(=O)n(Cc2ccc(Cl)cc2)c1 | 863
85 | Cc1cccc(Cn2ccc3c4c(N)nc(N)nc4ccc32)c1 | 7.35
86 | COCCNCc1ccc(-c2ccc(CN(C(=O)NC3CCCCC3)C3CCN(Cc4ccccc4)CC3)cc2)cc1 | 960
87 | COc1ccc2nccc(NC(=O)N3CCC(NCc4cc5c(F)ccc(F)c5[nH]4)CC3)c2n1 | 221
88 | COc1ccc2[nH]c(-c3ccccc3)cc(=NN=Cc3ccncc3)c2c1 | 812
89 | CCN1CCC(N(Cc2ccc(-c3ccc(C(F)(F)F)cc3)cc2)C(=O)Cn2nc(C)c(=O)cc2SCc2ccc(F)cc2)CC1 | 1010
90 | COc1ccc(S(=O)(=O)NC2CCN(CCNC(=O)Nc3cc(C)nc4ccccc34)C2)cc1 (centres undefined) | 1190
91 | CC(C)Sc1ccc(Cl)cc1CON1C(=N)N=C(N)NC1(C)C | 3.2
92 | Cc1ccccc1C1CCN(C2CCC(NC(=O)/C=C/c3c[nH]c4ccccc34)CC2)CC1 (centres undefined) | 810
93 | CCCCOc1ccc(CNCCCCCCNCc2ccc(OCCCC)c3ccccc23)c2ccccc12 | 1130
94 | CC1(C)[C@H]2CC[C@@H](CNc3nc(NCCc4c[nH]cn4)nc(Nc4ccc5c(c4)OCO5)n3)[C@@H]1C2 | 537
95 | CCCCCCC(C)c1cc(OCCN(CC)CC)c2c(c1)OC(C)(C)C=C2c1ccncc1 (centres undefined) | 1260
96 | Fc1cccc(Nc2nc(NCc3ccc4ccsc4c3)nc(Nc3cccc(F)c3)n2)c1 | 1080
97 | Cc1nc(-c2nc(N3CCOCC3)ncc2-c2ccsc2)sc1C | 315
98 | COc1cc(NC(=O)c2ccc3c(=O)n(Cc4ccccc4)c(=S)[nH]c3c2)cc(OC)c1OC | 743
99 | CCOC(C(=O)OCC1CCCN1C)(c1ccccc1)c1ccccc1 (centres undefined) | 863
